Experimental findings from patent publication US4563527A, “Amidine compounds” (Torii & Co., Ltd., priority 1984, dated 1986) are described below.

Data set [1] in a line: Median lethal dose (LD50). As to conditions: in vivo, mouse.
In the next data set the test system is complement. Briefly: Inhibition of complement mediated hemolysis. The data set is classed as cell-based. Summed up: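 Anti-C1 esterase (C1r, C1s) activity was measured as suppression of hemolysis when a known amount of complement, mixed with inhibitor, is added to antibody-sensitized erythrocytes. Method of Okamura et al.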
The next data set addresses T1, Trypsin (Bos taurus, UniProt P00760).
T1 sequence (P00760 24-246): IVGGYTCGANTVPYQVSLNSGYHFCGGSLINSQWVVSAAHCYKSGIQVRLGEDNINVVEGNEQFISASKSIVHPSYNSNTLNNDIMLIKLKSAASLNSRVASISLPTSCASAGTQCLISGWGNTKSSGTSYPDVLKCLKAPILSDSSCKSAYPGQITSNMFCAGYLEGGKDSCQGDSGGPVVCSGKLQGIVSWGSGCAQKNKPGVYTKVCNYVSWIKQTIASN
Briefly: Anti-trypsin activity (hydrolysis of TAME). The data set is classed as biochemical. Conditions: molar concentration inhibiting 50% of TAME hydrolysis; read-out: ID50 trypsin.

In another data set the test system is Kallikrein. Nature of the data set: Anti-kallikrein activity (hydrolysis of TAME). The data set is classed as biochemical. As to conditions: molar concentration inhibiting 50% of TAME hydrolysis; read-out: ID50 kallikrein.
For a further data set, the system named is Forssman shock. Briefly: Forssman shock. The data set is classed as in vivo, guinea pig. Conditions: test compound 3 mg/kg before intravenous hemolysin; individual male guinea pigs; control died at 278, 318, 296 sec. The text has this: Quite different from other animals, guinea pig has on the surface of its organs a specific antigen called Forssman antigen which specifically reacts with the antibody of sheep erythrocyte. Forssman shock is based on the above principle and is a shock caused by the administration of antibody of sheep erythrocyte to a guinea pig. The Forssman shock was investigated in detail by many researches and it was definitely shown that this shock is a model case where the complement plays the principal part and that the shock is associated with a classical pathway in which the complement system is activated progressively starting from C1. Since the participation of complement in autoimmune diseases has been established, the Forssman shock can be said to be useful means for testing a drug for autoimmune diseases. A drug effective for the treatment of Forssman shock is useful as a drug of autoimmune diseases. [Anti-trypsin, anti-plasmin, anti-kallikrein and anti-thrombin activities]
The experiment was performed according to the method of I. G. Offerness et al. [Biochem. Pharmacol., 27 (14), 1873-1878 (1978)]. Male Hartlay guinea pig of about 300 g in body weight was used. Each guinea pig of the control group was administered intravenously with hemolysin (minimum dose to cause the shock) (commercial hemolysin, 5,000 U as assayed by the method of Ogata) and the time elapsed until death was observed. […]

Another data set concerns the target T2, C1s (Homo sapiens, UniProt P09871).
T2 sequence (P09871 438-688 limits assumed): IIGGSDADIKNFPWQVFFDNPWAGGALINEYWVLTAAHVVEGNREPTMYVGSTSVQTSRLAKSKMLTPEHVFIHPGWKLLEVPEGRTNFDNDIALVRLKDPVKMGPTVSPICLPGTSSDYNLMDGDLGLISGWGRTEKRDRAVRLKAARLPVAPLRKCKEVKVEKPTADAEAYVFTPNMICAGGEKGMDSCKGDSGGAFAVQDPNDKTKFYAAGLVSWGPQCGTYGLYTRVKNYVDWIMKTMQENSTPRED
T2 sequence (P09871 16-437 partner limits assumed): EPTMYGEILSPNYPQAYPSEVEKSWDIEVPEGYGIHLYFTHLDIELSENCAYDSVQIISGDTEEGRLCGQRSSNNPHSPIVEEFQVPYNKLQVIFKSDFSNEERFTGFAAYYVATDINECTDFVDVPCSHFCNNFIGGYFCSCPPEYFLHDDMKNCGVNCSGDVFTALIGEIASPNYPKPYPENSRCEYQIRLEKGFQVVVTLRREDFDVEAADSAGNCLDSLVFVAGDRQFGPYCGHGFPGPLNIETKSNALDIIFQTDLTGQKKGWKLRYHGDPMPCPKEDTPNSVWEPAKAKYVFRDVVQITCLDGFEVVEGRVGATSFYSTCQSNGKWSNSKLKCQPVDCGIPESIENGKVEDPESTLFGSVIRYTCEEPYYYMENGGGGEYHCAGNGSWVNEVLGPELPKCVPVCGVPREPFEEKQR
Briefly: Anti-C1s activity (hydrolysis of ATEE). The data set is classed as biochemical. Conditions: molar concentration inhibiting 50% of ATEE hydrolysis; read-out: ID50 C1s (Anti-C1 activity). The essentials:
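Method of Okamura et al.: C1s esterase hydrolysis of acetyltyrosine ethyl ester (ATEE) measured with test compound. Value is ID50, molar concentration inhibiting 50% of ATEE hydrolysis.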

For another data set, the target named is Plasmin (Homo sapiens, UniProt P00747). Nature of the data set: Anti-plasmin activity (hydrolysis of TAME). The data set is classed as biochemical. As to conditions: molar concentration inhibiting 50% of TAME hydrolysis; read-out: ID50 plasmin. Here is the method:
The anti-trypsin, anti-plasmin, anti-kallikrein and anti-thrombin activities were determined according to the method of Muramatsu et al. [M. Muramatus, T. Onishi, S. Makino, Y. Hayashi and S. Fujii, J. of Biochem., 58, 214 (1965)]. […] The compound No. corresponds to the compound number shown in Examples.

A further data set addresses Thrombin (Homo sapiens, UniProt P00734). Nature of the data set: biochemical. As to conditions: molar concentration inhibiting 50% of TAME hydrolysis; read-out: ID50 thrombin.
The target of the next data set is T3, C1r (Homo sapiens, UniProt P00736).
T3 sequence (P00736 464-705 limits assumed): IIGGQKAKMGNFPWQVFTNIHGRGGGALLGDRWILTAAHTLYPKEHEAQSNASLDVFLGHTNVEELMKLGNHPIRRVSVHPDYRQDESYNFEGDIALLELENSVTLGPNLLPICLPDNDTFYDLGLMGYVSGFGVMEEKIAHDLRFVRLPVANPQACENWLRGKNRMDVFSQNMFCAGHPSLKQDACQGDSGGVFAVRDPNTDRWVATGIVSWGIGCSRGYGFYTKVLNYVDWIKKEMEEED
T3 sequence (P00736 18-463 partner limits assumed): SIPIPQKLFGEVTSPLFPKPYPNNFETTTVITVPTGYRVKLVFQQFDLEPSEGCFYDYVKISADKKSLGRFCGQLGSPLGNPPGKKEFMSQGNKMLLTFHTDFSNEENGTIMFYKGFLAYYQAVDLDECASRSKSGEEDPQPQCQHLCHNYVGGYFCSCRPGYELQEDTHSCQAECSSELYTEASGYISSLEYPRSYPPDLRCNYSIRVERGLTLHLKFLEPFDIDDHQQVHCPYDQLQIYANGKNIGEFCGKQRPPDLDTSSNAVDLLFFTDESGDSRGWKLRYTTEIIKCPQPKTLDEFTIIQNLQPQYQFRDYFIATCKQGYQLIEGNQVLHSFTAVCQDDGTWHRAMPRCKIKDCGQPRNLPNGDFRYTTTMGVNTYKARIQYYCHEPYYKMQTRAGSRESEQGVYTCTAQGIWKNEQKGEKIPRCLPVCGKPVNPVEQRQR
Briefly: biochemical. Conditions: molar concentration inhibiting 50% of AAME hydrolysis; read-out: ID50 C1r (Anti-C1 activity).

Chain of Plasmin (P00747 581-810 limits assumed, species assumed): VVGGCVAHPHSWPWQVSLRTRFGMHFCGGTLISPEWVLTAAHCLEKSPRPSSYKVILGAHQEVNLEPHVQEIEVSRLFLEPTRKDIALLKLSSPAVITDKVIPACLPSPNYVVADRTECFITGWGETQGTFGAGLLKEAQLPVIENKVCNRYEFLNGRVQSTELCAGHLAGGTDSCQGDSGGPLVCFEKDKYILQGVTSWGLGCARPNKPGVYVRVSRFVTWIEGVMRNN
Chain of Plasmin (P00747 97-580 partner limits assumed, species assumed): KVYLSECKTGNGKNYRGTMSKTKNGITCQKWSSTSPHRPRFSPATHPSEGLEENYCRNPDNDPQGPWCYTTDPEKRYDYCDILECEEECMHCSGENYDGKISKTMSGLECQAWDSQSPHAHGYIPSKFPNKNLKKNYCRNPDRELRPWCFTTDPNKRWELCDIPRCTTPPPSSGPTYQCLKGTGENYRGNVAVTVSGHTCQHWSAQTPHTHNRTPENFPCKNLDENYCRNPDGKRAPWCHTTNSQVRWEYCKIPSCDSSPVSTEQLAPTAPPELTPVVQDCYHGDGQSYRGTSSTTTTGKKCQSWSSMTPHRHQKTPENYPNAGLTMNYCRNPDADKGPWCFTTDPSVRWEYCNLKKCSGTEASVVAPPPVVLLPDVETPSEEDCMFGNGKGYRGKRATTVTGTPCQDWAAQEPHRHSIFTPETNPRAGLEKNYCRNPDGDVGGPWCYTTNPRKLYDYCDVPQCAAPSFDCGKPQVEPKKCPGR

For `N=C(N)c1ccc2cc(OC(=O)c3ccc(CN)s3)ccc2c1` [Compound No. 31, 6-amidino-2-naphthyl 5-aminomethyl-thiophene-2-carboxylate], the LD50 in data set [1] (ip, I.P.) came to 200 mg/kg; in data set [1] (po, P.O.), 2500 mg/kg. In addition, the “Inhibition of complement mediated hemolysis (%)” value in the data set on complement (1 × 10^-5) is reported as 100%; in the data set with complement (1 × 10^-6) it was 98%; in the data set with complement (1 × 10^-7) it was 97%. Moreover, the IC50 was determined as 20 nM on Trypsin; 400 nM in the data set on Kallikrein; 300 nM on C1s; 400 nM at Plasmin; 1000 nM at Thrombin; 200 nM at C1r. Besides, the “time elapsed until death (survival) in Forssman shock” value with Forssman shock was “Survival”.

As a reminder, the LD50 is the dose at which mortality reaches 50%. High values mean lower toxicity, low ones greater toxicity.
